# Laboratory results published in article PMC9706563, “Development of Macrocyclic PRMT5–Adaptor Protein Interaction Inhibitors” (Journal of Medicinal Chemistry, 2022).
# Square brackets hold non-standard residues; d marks the D form. Peptide text beside a SMILES is read from it. * marks the point of attachment. FITC = O=C1OC2(c3ccc(O)cc3Oc3cc(O)ccc32)c2ccc(NC(=S)*)cc21; Phe(4-guanidino) = N=C(N)Nc1ccc(C[C@H](N)C(=O)O)cc1; Phe(3-CF3) = N[C@@H](Cc1cccc(C(F)(F)F)c1)C(=O)O; Phe(4-COOH) = N[C@@H](Cc1ccc(C(=O)O)cc1)C(=O)O; Bpa = N[C@@H](Cc1ccc(C(=O)c2ccccc2)cc1)C(=O)O; Phe(2-Ph) = N[C@@H](Cc1ccccc1-c1ccccc1)C(=O)O; Phe(3-Cl) = N[C@@H](Cc1cccc(Cl)c1)C(=O)O; 1Nal = N[C@@H](Cc1cccc2ccccc12)C(=O)O; 2Nal = N[C@@H](Cc1ccc2ccccc2c1)C(=O)O; Gla = N[C@@H](CC(C(=O)O)C(=O)O)C(=O)O; hPhe = N[C@@H](CCc1ccccc1)C(=O)O; 2Pal = N[C@@H](Cc1ccccn1)C(=O)O; Cha = N[C@@H](CC1CCCCC1)C(=O)O; Nle = CCCC[C@H](N)C(=O)O; Nva = CCC[C@H](N)C(=O)O; Abu = CC[C@H](N)C(=O)O
# Biological target: T1, PRMT5-MEP50 (Homo sapiens, UniProt O14744)
# T1 construct: The compounds were tested by means of FP with the full-length PRMT5-MEP50 complex; made in house
# T1 sequence (O14744 whole entry): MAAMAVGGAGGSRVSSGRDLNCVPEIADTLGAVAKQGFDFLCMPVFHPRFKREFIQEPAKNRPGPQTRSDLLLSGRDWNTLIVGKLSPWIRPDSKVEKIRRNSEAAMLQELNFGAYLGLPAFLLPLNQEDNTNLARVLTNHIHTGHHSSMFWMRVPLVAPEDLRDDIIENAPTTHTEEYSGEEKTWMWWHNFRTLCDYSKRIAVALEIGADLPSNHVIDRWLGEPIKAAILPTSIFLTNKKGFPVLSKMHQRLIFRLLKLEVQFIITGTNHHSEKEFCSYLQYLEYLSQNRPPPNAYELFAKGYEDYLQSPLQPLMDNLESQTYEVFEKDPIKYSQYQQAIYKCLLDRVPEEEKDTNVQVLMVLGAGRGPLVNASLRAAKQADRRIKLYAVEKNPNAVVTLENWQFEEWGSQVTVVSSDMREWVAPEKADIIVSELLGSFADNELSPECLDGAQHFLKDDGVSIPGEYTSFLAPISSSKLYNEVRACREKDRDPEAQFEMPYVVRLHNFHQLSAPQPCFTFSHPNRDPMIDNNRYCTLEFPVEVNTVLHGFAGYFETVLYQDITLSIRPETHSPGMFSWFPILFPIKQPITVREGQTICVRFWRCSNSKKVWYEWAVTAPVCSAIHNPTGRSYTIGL
# T1 sequence (Q9BQA1 whole entry partner): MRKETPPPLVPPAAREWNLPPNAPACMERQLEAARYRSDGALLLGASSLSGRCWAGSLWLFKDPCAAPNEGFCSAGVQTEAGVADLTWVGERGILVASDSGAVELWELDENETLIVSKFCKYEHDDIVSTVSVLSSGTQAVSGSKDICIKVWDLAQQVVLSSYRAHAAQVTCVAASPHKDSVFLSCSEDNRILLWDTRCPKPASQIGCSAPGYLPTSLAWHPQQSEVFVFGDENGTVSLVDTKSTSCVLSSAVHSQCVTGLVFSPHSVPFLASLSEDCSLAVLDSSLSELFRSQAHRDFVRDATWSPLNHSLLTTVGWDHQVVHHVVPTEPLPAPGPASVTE
# Test: Direct binding fluorescence polarization (FP) assay of FITC-labeled peptides
# Conditions: PRMT5-MEP50 Kd (µM), supplementary CSV
# Procedure: The assay was performed in a buffer of 50 mM 4-(2-hydroxyethyl)-1-piperazineethanesulfonic acid (HEPES), 250 mM NaCl, 1 mM tris(2-carboxyethyl)phosphine (TCEP), and 0.01% (v/v) Tween 20, pH 8.0, in black, 384-well plates with a total volume of 10 μL per well. […] The plates were incubated at room temperature for 1 to 2 h and analyzed on a plate reader using 485 nm excitation and 535 nm emission wavelength. The assay was performed in triplicate.
row,Molecule,Kd [µM]
1,CC(=O)N[C@H](C(=O)N1CCC[C@H]1C(=O)NCC(=O)N[C@@H](CCC(N)=O)C(=O)N[C@@H](Cc1ccc(C(=O)c2ccccc2)cc1)C(=O)N[C@@H](CC(=O)O)C(=O)N[C@@H](CC(=O)O)C(=O)N[C@@H](C)C(=O)N[C@@H](CC(=O)O)C(=O)N[C@@H](CCCCNC(=S)Nc1ccc2c(c1)C(=O)OC21c2ccc(O)cc2Oc2cc(O)ccc21)C(N)=O)C(C)C [Compound S23] (Ac-VPGQ[Bpa]DDADK(FITC)-NH2),0.752 ± 0.044

# Same assay, conditions: supplementary CSV, read-out: PRMT5-MEP50 Kd
row,Molecule,Kd [µM]
1,CC(=O)N[C@H](C(=O)N1CCC[C@H]1C(=O)NCC(=O)N[C@@H](CCC(N)=O)C(=O)N[C@@H](Cc1cccc(Cl)c1)C(=O)N[C@@H](CC(=O)O)C(=O)N[C@@H](CC(=O)O)C(=O)N[C@@H](C)C(=O)N[C@@H](CC(=O)O)C(=O)N[C@@H](CCCCNC(=S)Nc1ccc2c(c1)C(=O)OC21c2ccc(O)cc2Oc2cc(O)ccc21)C(N)=O)C(C)C [Compound S15] (Ac-VPGQ[Phe(3-Cl)]DDADK(FITC)-NH2),> 1
2,CC(=O)N[C@H](C(=O)N1CCC[C@H]1C(=O)NCC(=O)N[C@@H](CCC(N)=O)C(=O)N[C@@H](Cc1cccc(C(F)(F)F)c1)C(=O)N[C@@H](CC(=O)O)C(=O)N[C@@H](CC(=O)O)C(=O)N[C@@H](C)C(=O)N[C@@H](CC(=O)O)C(=O)N[C@@H](CCCCNC(=S)Nc1ccc2c(c1)C(=O)OC21c2ccc(O)cc2Oc2cc(O)ccc21)C(N)=O)C(C)C [Compound S16] (Ac-VPGQ[Phe(3-CF3)]DDADK(FITC)-NH2),> 1
3,CC(=O)N[C@H](C(=O)N1CCC[C@H]1C(=O)NCC(=O)N[C@@H](CCC(N)=O)C(=O)N[C@@H](Cc1ccccn1)C(=O)N[C@@H](CC(=O)O)C(=O)N[C@@H](CC(=O)O)C(=O)N[C@@H](C)C(=O)N[C@@H](CC(=O)O)C(=O)N[C@@H](CCCCNC(=S)Nc1ccc2c(c1)C(=O)OC21c2ccc(O)cc2Oc2cc(O)ccc21)C(N)=O)C(C)C [Compound S17] (Ac-VPGQ[2Pal]DDADK(FITC)-NH2),> 1
4,CC(=O)N[C@H](C(=O)N1CCC[C@H]1C(=O)NCC(=O)N[C@@H](CCC(N)=O)C(=O)N[C@@H](Cc1ccc(O)cc1)C(=O)N[C@@H](CC(=O)O)C(=O)N[C@@H](CC(=O)O)C(=O)N[C@@H](C)C(=O)N[C@@H](CC(=O)O)C(=O)N[C@@H](CCCCNC(=S)Nc1ccc2c(c1)C(=O)OC21c2ccc(O)cc2Oc2cc(O)ccc21)C(N)=O)C(C)C [Compound S18] (Ac-VPGQYDDADK(FITC)-NH2),> 1
5,CC(=O)N[C@H](C(=O)N1CCC[C@H]1C(=O)NCC(=O)N[C@@H](CCC(N)=O)C(=O)N[C@@H](Cc1ccc(C(=O)O)cc1)C(=O)N[C@@H](CC(=O)O)C(=O)N[C@@H](CC(=O)O)C(=O)N[C@@H](C)C(=O)N[C@@H](CC(=O)O)C(=O)N[C@@H](CCCCNC(=S)Nc1ccc2c(c1)C(=O)OC21c2ccc(O)cc2Oc2cc(O)ccc21)C(N)=O)C(C)C [Compound S19] (Ac-VPGQ[Phe(4-COOH)]DDADK(FITC)-NH2),> 1
6,CC(=O)N[C@H](C(=O)N1CCC[C@H]1C(=O)NCC(=O)N[C@@H](CCC(N)=O)C(=O)N[C@@H](Cc1ccc(N=C(N)N)cc1)C(=O)N[C@@H](CC(=O)O)C(=O)N[C@@H](CC(=O)O)C(=O)N[C@@H](C)C(=O)N[C@@H](CC(=O)O)C(=O)N[C@@H](CCCCNC(=S)Nc1ccc2c(c1)C(=O)OC21c2ccc(O)cc2Oc2cc(O)ccc21)C(N)=O)C(C)C [Compound S20] (Ac-VPGQ[Phe(4-guanidino)]DDADK(FITC)-NH2),> 1
7,CC(=O)N[C@H](C(=O)N1CCC[C@H]1C(=O)NCC(=O)N[C@@H](CCC(N)=O)C(=O)N[C@@H](CCc1ccccc1)C(=O)N[C@@H](CC(=O)O)C(=O)N[C@@H](CC(=O)O)C(=O)N[C@@H](C)C(=O)N[C@@H](CC(=O)O)C(=O)N[C@@H](CCCCNC(=S)Nc1ccc2c(c1)C(=O)OC21c2ccc(O)cc2Oc2cc(O)ccc21)C(N)=O)C(C)C [Compound S21] (Ac-VPGQ[hPhe]DDADK(FITC)-NH2),> 1
8,CC(=O)N[C@H](C(=O)N1CCC[C@H]1C(=O)NCC(=O)N[C@@H](CCC(N)=O)C(=O)N[C@@H](Cc1ccccc1-c1ccccc1)C(=O)N[C@@H](CC(=O)O)C(=O)N[C@@H](CC(=O)O)C(=O)N[C@@H](C)C(=O)N[C@@H](CC(=O)O)C(=O)N[C@@H](CCCCNC(=S)Nc1ccc2c(c1)C(=O)OC21c2ccc(O)cc2Oc2cc(O)ccc21)C(N)=O)C(C)C [Compound S22] (Ac-VPGQ[Phe(2-Ph)]DDADK(FITC)-NH2),> 1
9,CC(=O)N[C@H](C(=O)N1CCC[C@H]1C(=O)NCC(=O)N[C@@H](CCC(N)=O)C(=O)N[C@@H](Cc1ccc2ccccc2c1)C(=O)N[C@@H](CC(=O)O)C(=O)N[C@@H](CC(=O)O)C(=O)N[C@@H](C)C(=O)N[C@@H](CC(=O)O)C(=O)N[C@@H](CCCCNC(=S)Nc1ccc2c(c1)C(=O)OC21c2ccc(O)cc2Oc2cc(O)ccc21)C(N)=O)C(C)C [Compound S24] (Ac-VPGQ[2Nal]DDADK(FITC)-NH2),> 1
10,CC(=O)N[C@H](C(=O)N1CCC[C@H]1C(=O)NCC(=O)N[C@@H](CCC(N)=O)C(=O)N[C@@H](Cc1cccc2ccccc12)C(=O)N[C@@H](CC(=O)O)C(=O)N[C@@H](CC(=O)O)C(=O)N[C@@H](C)C(=O)N[C@@H](CC(=O)O)C(=O)N[C@@H](CCCCNC(=S)Nc1ccc2c(c1)C(=O)OC21c2ccc(O)cc2Oc2cc(O)ccc21)C(N)=O)C(C)C [Compound S25] (Ac-VPGQ[1Nal]DDADK(FITC)-NH2),> 1
11,CC(=O)N[C@H](C(=O)N1CCC[C@H]1C(=O)NCC(=O)N[C@@H](CCC(N)=O)C(=O)N[C@@H](Cc1ccccc1)C(=O)N[C@@H](CC(=O)O)C(=O)N[C@@H](CC(C(=O)O)C(=O)O)C(=O)N[C@@H](C)C(=O)N[C@@H](CC(=O)O)C(=O)N[C@@H](CCCCNC(=S)Nc1ccc2c(c1)C(=O)OC21c2ccc(O)cc2Oc2cc(O)ccc21)C(N)=O)C(C)C [Compound S26] (Ac-VPGQFD[Gla]ADK(FITC)-NH2),> 1
12,CC[C@H](NC(=O)[C@H](CC(=O)O)NC(=O)[C@H](CC(=O)O)NC(=O)[C@H](Cc1ccccc1)NC(=O)[C@H](CCC(N)=O)NC(=O)CNC(=O)[C@@H]1CCCN1C(=O)[C@@H](NC(C)=O)C(C)C)C(=O)N[C@@H](CC(=O)O)C(=O)N[C@@H](CCCCNC(=S)Nc1ccc2c(c1)C(=O)OC21c2ccc(O)cc2Oc2cc(O)ccc21)C(N)=O [Compound S27] (Ac-VPGQFDD[Abu]DK(FITC)-NH2),> 1
13,CCC[C@H](NC(=O)[C@H](CC(=O)O)NC(=O)[C@H](CC(=O)O)NC(=O)[C@H](Cc1ccccc1)NC(=O)[C@H](CCC(N)=O)NC(=O)CNC(=O)[C@@H]1CCCN1C(=O)[C@@H](NC(C)=O)C(C)C)C(=O)N[C@@H](CC(=O)O)C(=O)N[C@@H](CCCCNC(=S)Nc1ccc2c(c1)C(=O)OC21c2ccc(O)cc2Oc2cc(O)ccc21)C(N)=O [Compound S28] (Ac-VPGQFDD[Nva]DK(FITC)-NH2),> 1
14,CCCC[C@H](NC(=O)[C@H](CC(=O)O)NC(=O)[C@H](CC(=O)O)NC(=O)[C@H](Cc1ccccc1)NC(=O)[C@H](CCC(N)=O)NC(=O)CNC(=O)[C@@H]1CCCN1C(=O)[C@@H](NC(C)=O)C(C)C)C(=O)N[C@@H](CC(=O)O)C(=O)N[C@@H](CCCCNC(=S)Nc1ccc2c(c1)C(=O)OC21c2ccc(O)cc2Oc2cc(O)ccc21)C(N)=O [Compound S29] (Ac-VPGQFDD[Nle]DK(FITC)-NH2),> 1
15,CC(=O)N[C@H](C(=O)N1CCC[C@H]1C(=O)NCC(=O)N[C@@H](CCC(N)=O)C(=O)N[C@@H](Cc1ccccc1)C(=O)N[C@@H](CC(=O)O)C(=O)N[C@@H](CC(=O)O)C(=O)N[C@@H](CC1CCCCC1)C(=O)N[C@@H](CC(=O)O)C(=O)N[C@@H](CCCCNC(=S)Nc1ccc2c(c1)C(=O)OC21c2ccc(O)cc2Oc2cc(O)ccc21)C(N)=O)C(C)C [Compound S30] (Ac-VPGQFDD[Cha]DK(FITC)-NH2),> 1
16,CC(=O)N[C@H](C(=O)N1CCC[C@H]1C(=O)NCC(=O)N[C@@H](CCC(N)=O)C(=O)N[C@@H](Cc1ccccc1)C(=O)N[C@@H](CC(=O)O)C(=O)N[C@@H](CC(=O)O)C(=O)N[C@@H](CO)C(=O)N[C@@H](CC(=O)O)C(=O)N[C@@H](CCCCNC(=S)Nc1ccc2c(c1)C(=O)OC21c2ccc(O)cc2Oc2cc(O)ccc21)C(N)=O)C(C)C [Compound S31] (Ac-VPGQFDDSDK(FITC)-NH2),> 1
17,CC(=O)N[C@H](C(=O)N1CCC[C@H]1C(=O)NCC(=O)N[C@@H](CCC(N)=O)C(=O)N[C@@H](Cc1ccccc1)C(=O)N[C@@H](CC(=O)O)C(=O)N[C@@H](CC(=O)O)C(=O)N[C@@H](C)C(=O)N[C@@H](Cc1ccc(O)cc1)C(=O)N[C@@H](CCCCNC(=S)Nc1ccc2c(c1)C(=O)OC21c2ccc(O)cc2Oc2cc(O)ccc21)C(N)=O)C(C)C [Compound S32] (Ac-VPGQFDDAYK(FITC)-NH2),> 1
18,CC(=O)N[C@H](C(=O)N1CCC[C@H]1C(=O)NCC(=O)N[C@@H](CCC(N)=O)C(=O)N[C@@H](Cc1ccccc1)C(=O)N[C@@H](CC(=O)O)C(=O)N[C@@H](CC(=O)O)C(=O)N[C@@H](C)C(=O)N[C@@H](Cc1c[nH]c2ccccc12)C(=O)N[C@@H](CCCCNC(=S)Nc1ccc2c(c1)C(=O)OC21c2ccc(O)cc2Oc2cc(O)ccc21)C(N)=O)C(C)C [Compound S33] (Ac-VPGQFDDAWK(FITC)-NH2),> 1
19,CC(=O)N[C@H](C(=O)N1CCC[C@H]1C(=O)NCC(=O)N[C@@H](CCC(N)=O)C(=O)N[C@@H](Cc1ccccc1)C(=O)N[C@@H](CC(=O)O)C(=O)N[C@@H](CC(=O)O)C(=O)N[C@@H](C)C(=O)N[C@@H](CCc1ccccc1)C(=O)N[C@@H](CCCCNC(=S)Nc1ccc2c(c1)C(=O)OC21c2ccc(O)cc2Oc2cc(O)ccc21)C(N)=O)C(C)C [Compound S34] (Ac-VPGQFDDA[hPhe]K(FITC)-NH2),> 1

# Test system: not listed separately
# Test: Stability assay in cell lysate
# Format: in vitro ADME
# Conditions: U2OS cell lysate, 37 °C, 600 μM peptide
# Procedure: To the whole cell lysate prepared from U2OS cells with the freeze–thaw method was added the appropriate peptide, resulting in a mixture of 0.5 mg/mL protein and 600 μM peptide in PBS, and incubated at 37 °C. The samples were taken at 0, 15, 30 min, 1, 2, 4 h, 1, 3, and 7-days time points and mixed with an equal volume of ice-cold ethylparaben solution in MeOH (0.1 mg/mL), used as the internal standard. The samples were kept on ice for 15 min and centrifuged at 16,873 × g at 4 °C for 5 min. The obtained supernatant was then analyzed by HPLC, the peptide and the internal standard peaks at 210 nm were integrated, and the ratio of the peptide peak surface area to the internal standard was calculated. The experiment was conducted in duplicate.
row,Molecule,half-life [h]
1,Ac-VPGQFDDAD-NH2 [Compound 31],4.4

# Same assay, conditions: cells or culture medium, supplementary CSV; read-out: Half-llife in Lysate (converted)
row,Molecule,half-life [h]
1,Ac-VPGQFDDAD-NH2 [Compound 31],4.32
